Literature values as cited in patent US20060019940A1, “Novel benzoxazocines and their therapeutic use” (priority 2002, published 2006).

Legend:
[1] = system: synaptosomal uptake of dopamine, norepinephrine and serotonin; conditions: order of potency (+)-nefopam>(±)-nefopam>(−)-nefopam
[2] = order of potency (+)-nefopam>(±)-nefopam>(−)-nefopam

## CN1CCO[C@@H](c2ccccc2)c2ccccc2C1 [(+)-nefopam]
[1]
  dopamine, norepinephrine and serotonin uptake inhibitory properties compared with (−)-nefopam: more potent
[2]
  analgesic properties compared with (−)-nefopam: more potent
